One assay relates to CEM/C2. Particulars: CEM/C2 cell line obtained from ATCC; cited from earlier work.
The next assay has as its system U937 cells. The experiment in a line: Escape velocity, effect of camptothecin on U937 cells. It counts as cell-based. Particulars: camptothecin-treated U937 cells. The protocol:
The objective of this experiment is to test the effects of camptothecin on the escape velocities of U937 cells. Camptothecin inhibits DNA topoisomerase I and induces apoptosis. A control and three concentrations of camptothecin were tested: […]. After adding the camptothecin, the flasks are incubated at 37° C. 5% CO2.
At the timepoints of 4 hours and 6 hours, 200 μl of cells are spun for 5 minutes at 5000 rpm. The cells are then resuspended in […] PBS/1% BSA and […] trypan blue.
Optophoretic techniques have been investigated for their potential to detect the early onset of apoptosis in mammalian cells. U.S. patent application Ser. No. 10,240,611, for example, discloses multiple experiments in which U937 cells were treated with camptothecin and subsequently monitored Optophoretically using measured escape velocities. In one experiment, the escape velocity of the camptothecin-treated cells were measured at 4 and 6 hours after treatment. Noticeable changes in escape velocity were seen as early as 4 hours after treatment (see, e.g., FIG. 34). In that experiment, U937 cells were treated with 4 μg/ml of camptothecin and resuspended in PBS/1% BSA. Escape velocity measurements were taken after 4 and 6 hours. Table 18, reproduced below, includes the results of the escape velocity measurements for the test cells as well as the controls.

Molecules are shown by their SMILES. Some results are limits rather than exact numbers.

With `CC[C@@]1(O)C(=O)OCc2c1cc1n(c2=O)Cc2cc3ccccc3nc2-1` [Camptothecin], the “less sensitive than parental cell line CCRF-CEM” value in the assay on CEM/C2 was 970 fold. The “time after treatment at which noticeable changes in escape velocity were seen” value in the assay with U937 cells is at most 4 h.

(Values after patent US20040121474A1, “Detection and evaluation of chemically-mediated and ligand-mediated t-cell activation using optophoretic analysis” (Genoptix, Inc, priority 2002, published 2004).)
